PubChem BioAssay AID1996
Values after ≈ are worked out from the molar mass of the structure shown.

Settings: buffer; pH 7.4; 200.0 µM

Structure (SMILES)	solubility kinetic [µg/mL]
CCn1c(C(O)c2cc(OC)c(OC)c(OC)c2)nc2ccccc21 (stereo unspecified)	47.7 (≈ 139 µM)
CSc1ncccc1C(=O)Nc1ccc(C)cn1	> 38.9
CC(C)CCNC(=O)c1cc2c(s1)-c1ccccc1S(=O)(=O)C2	2.1 (≈ 6.01 µM)
Cc1cc(NC(=O)C(=O)NCc2cccc(Cl)c2)no1	3.2 (≈ 10.9 µM)
O=C(Nc1ccccc1O)c1ccc2c(c1)C(=O)N(Cc1ccco1)C2=O	1.3 (≈ 3.59 µM)
COC(=O)CNC(=O)C12CC3CC(C1)CC(c1ccc(C)cc1)(C3)C2	6.5 (≈ 19 µM)
O=CN1CCN(C(=S)Nc2ccc(OC(F)F)cc2)CC1	> 47.3
Cc1nn(CCCC(=O)O)c(C)c1[N+](=O)[O-]	> 34.1
Cc1ccc(NC(=O)c2ccc(Cl)nc2)cc1	9.3 (≈ 37.7 µM)
Fc1ccc(CN2CCC(Cc3ccccc3)CC2)cc1F	8 (≈ 26.5 µM)
COC(=O)CSc1nccc(-c2ccc(F)cc2)c1C#N	< 0.3
CC(C)c1ccc(NC(=O)C2CC3CCC2C3)cc1 (stereo unspecified)	2.1 (≈ 8.16 µM)
N#Cc1c(N2C(=O)c3ccc(C(=O)O)cc3C2=O)sc2c1CCCC2	> 52.9
O=S(=O)(c1ccccc1)c1nc(-c2ccccc2Cl)oc1NCCCN1CCOCC1	3.6 (≈ 7.79 µM)
Cc1ccccc1Nc1ccc2nonc2c1[N+](=O)[O-]	0.8 (≈ 2.96 µM)
C(=C\c1ccccc1)/CNCC1CCCO1.Cl (stereo unspecified)	38
O=C(COC(=O)CN1C(=O)c2ccccc2C1=O)Nc1ccccc1	> 50.7
O=C(NCc1ccc2c(c1)OCO2)c1ccc(Br)s1	1.9 (≈ 5.58 µM)
COc1ccccc1NC(=O)CN1CCOCC1	> 37.5
CSc1ccc(C(=S)N2CCCC2)cc1	29.6 (≈ 125 µM)
O=C(CCCN1C(=O)C2CC=CCC2C1=O)Nc1ccccc1F (stereo unspecified)	> 49.6

Structure (SMILES)	solubility kinetic [µg/mL]
Cc1cn(CCOc2ccc(Cl)cc2)c(=O)[nH]c1=O	36.8 (≈ 131 µM)
CCOC(=O)C1C(c2ccccc2O)NC(=O)NC1(O)C(F)(F)F (stereo unspecified)	> 52.2
Cc1cc(=O)oc(C)c1C(=O)Nc1ccccc1F	35.4 (≈ 136 µM)
Cc1ccc(-c2nc(CNC(=O)c3cc(C)on3)cs2)cc1	35.4 (≈ 113 µM)
C/C(CCC1CC(C)OC1=O)=N\NC(N)=S (stereo unspecified)	> 36.5
Cc1cc(Cl)c(OCCOCCN2CCNCC2)c(Cl)c1.O=C(O)C(=O)O	62.5
Cc1cc(=O)oc2cc(OCC(=O)OC(C)C(=O)Nc3ccc(S(N)(=O)=O)cc3)ccc12 (stereo unspecified)	> 69.1
CCCCc1nnc(NC(=O)C2=COCCO2)s1	> 40.4
CSc1ncccc1C(=O)N(C)CC(=O)Nc1cccc(F)c1	> 50
O=C(O)C(=O)O.c1cncc(CNCCc2ccc3c(c2)OCO3)c1	> 52
Cc1ccc(S(=O)(=O)N2CCN(C(=O)Cn3c(=O)cnc4ccccc43)CC2)c(C)c1	> 66.1
CC(=O)Nc1ccc(C(=S)NCCCO)cc1	> 37.8
O=C(Nc1ccnc(-c2ccncc2)n1)c1ccccc1Cl	0.9 (≈ 2.9 µM)
COCC1CCN(Cc2nc(COc3ccccc3)no2)C1 (stereo unspecified)	37.2 (≈ 123 µM)
COc1ccc(S(=O)(=O)n2c([N+](=O)[O-])cnc2C)c(C)c1C	45.2 (≈ 139 µM)
O=C(NCCCNC(=O)c1ccc(Cl)cc1Cl)c1ccccn1	51.8 (≈ 147 µM)
COC(=O)c1ccsc1NC(=O)CCc1ccccc1	9.6 (≈ 33.2 µM)
COc1ccc(C(=O)Nc2ccc3ccccc3n2)c(OC)c1OC	2.2 (≈ 6.5 µM)
C=CCN1C(=O)CSC1=Nc1ccc(C(=O)O)cc1	> 41.4
Nc1nc2ccccc2n1Cc1ccc(Cl)c(Cl)c1	33.1 (≈ 113 µM)
Cc1c(N2CCCC2)cc2c(c1N)C(C)(C)CC2(C)C	19.2 (≈ 70.5 µM)

Structure (SMILES)	solubility kinetic [µg/mL]
O=C(CSc1nnc(C2CC2)n1Cc1ccccc1)N1CCNC1=O	> 53.6
COc1ccc(C(=O)O)cc1S(N)(=O)=O	> 34.7
Cc1c(C)n(-c2ccccc2)c2ncnc(NCCCN(C)C)c12	> 48.5
OCC1(CO)COC(c2ccccc2)=N1	> 31.1
O=C(CCCC(=O)NC1CCCCC1)Nc1ccc([N+](=O)[O-])cc1	12 (≈ 36 µM)
Cc1cnc(NC(=O)CCN2C(=O)C3CCCCC3C2=O)s1 (stereo unspecified)	39.3 (≈ 122 µM)
CCOC(=O)N1CCN(CCCc2ccccc2)CC1	30.9 (≈ 112 µM)
O=C(OCc1cc(=O)n2ccsc2n1)c1ccccc1O	22.5 (≈ 74.4 µM)
Cc1ccc(N2CC(C(=O)NC3CCC(C)CC3)CC2=O)cc1 (stereo unspecified)	2.5 (≈ 7.95 µM)
O=C(/C=C/c1ccc(F)cc1)N1CCc2ccccc2C1	12.5 (≈ 44.4 µM)
O=C(COC(=O)c1cccnc1Cl)NCc1cccs1	44.1 (≈ 142 µM)
O=C(NC(=S)N1CCCC1)c1ccccc1	> 35.1
Cc1nccc(-c2sc(-c3cccs3)nc2C)n1	2.6 (≈ 9.51 µM)
Cc1cccc(/N=C/c2sc3ccccc3c2O)n1	1.1 (≈ 4.1 µM)
Cc1cc2[nH]c(=O)c(=O)[nH]c2cc1S(=O)(=O)NCc1ccccc1	> 51.8
Cn1cccc1C(=O)NCC(c1ccco1)N1CCCCC1 (stereo unspecified)	> 45.2
COc1ccc(NC(=O)NCc2ccco2)cc1OC	37.6 (≈ 136 µM)
CSc1nc2ncnc(N)c2[nH]1	> 27.2
O=C(Nc1ccccc1Cl)Nc1cccnc1Cl	2.8 (≈ 9.92 µM)
